From patent US20140058103A1, “Inhibitors of PI3K-Delta and Methods of Their Use and Manufacture” (Exelixis, Inc., priority 2010, published 2014)

Target: PI3K delta (Homo sapiens, UniProt O00329)
Assay: Luciferase-coupled chemiluminescence kinase assay (ATP consumption, KinaseGlo)
Type: biochemical
Description: Kinase activity and compound inhibition were investigated using one or more of the assay formats described below. The ATP concentrations used in the various assays were approximately equal to or less than the KM for each of the respective kinases. Dose-response experiments were performed using an intra-plate dilution scheme with 10 different inhibitor concentrations in a 384-well microtiter plate. IC50 values were calculated by nonlinear regression analysis using the four-parameter equation listed below:
Y=min+(max−min)/(1+(X/IC50)^N) Equation 1
Typically N should approximate unity. Curve fitting was performed using XLFit or ActivityBase.
Kinase activity is measured as the percent of ATP consumed following the kinase reaction using luciferase-luciferin-coupled chemiluminescence. […] Kinase reactions were initiated by combining test compounds, kinase, and ATP in a 20 μL volume (6 μL volume for 1536-well plate). The reaction mixture was incubated at ambient temperature for 2 h. Following the kinase reaction, a 20 μL (or […] for 1536-well plate) aliquot of KinaseGlo (Promega) was added and the chemiluminescence signal measured using an EnVision plate reader (Perkin Elmer).

PI3K delta, sequence (O00329 whole entry): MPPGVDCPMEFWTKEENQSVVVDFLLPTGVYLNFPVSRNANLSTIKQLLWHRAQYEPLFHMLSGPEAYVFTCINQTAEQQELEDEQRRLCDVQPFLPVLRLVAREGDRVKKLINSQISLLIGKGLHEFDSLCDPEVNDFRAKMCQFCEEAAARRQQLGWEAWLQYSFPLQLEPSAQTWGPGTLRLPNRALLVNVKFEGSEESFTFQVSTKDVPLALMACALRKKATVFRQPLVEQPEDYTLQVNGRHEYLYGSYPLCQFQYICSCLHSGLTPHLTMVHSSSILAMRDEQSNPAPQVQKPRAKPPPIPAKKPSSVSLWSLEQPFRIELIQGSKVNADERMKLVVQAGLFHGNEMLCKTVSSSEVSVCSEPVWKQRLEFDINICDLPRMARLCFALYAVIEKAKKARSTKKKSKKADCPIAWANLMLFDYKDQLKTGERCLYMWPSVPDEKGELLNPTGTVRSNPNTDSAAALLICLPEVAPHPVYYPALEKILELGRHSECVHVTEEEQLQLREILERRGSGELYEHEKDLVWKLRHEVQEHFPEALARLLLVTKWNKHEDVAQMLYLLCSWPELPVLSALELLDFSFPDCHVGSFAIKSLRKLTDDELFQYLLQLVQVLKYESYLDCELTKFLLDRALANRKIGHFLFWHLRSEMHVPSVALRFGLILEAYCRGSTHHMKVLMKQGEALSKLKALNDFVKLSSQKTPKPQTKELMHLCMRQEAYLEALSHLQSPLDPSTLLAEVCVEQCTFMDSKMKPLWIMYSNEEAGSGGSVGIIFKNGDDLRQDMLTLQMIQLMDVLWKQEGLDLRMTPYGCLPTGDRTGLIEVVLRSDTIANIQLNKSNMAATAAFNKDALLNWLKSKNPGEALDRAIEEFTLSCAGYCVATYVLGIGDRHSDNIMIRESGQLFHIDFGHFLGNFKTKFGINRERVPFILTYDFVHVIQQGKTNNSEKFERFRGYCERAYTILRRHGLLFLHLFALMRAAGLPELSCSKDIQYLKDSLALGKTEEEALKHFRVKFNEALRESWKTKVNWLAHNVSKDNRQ
PI3K delta, sequence (P27986 whole entry partner): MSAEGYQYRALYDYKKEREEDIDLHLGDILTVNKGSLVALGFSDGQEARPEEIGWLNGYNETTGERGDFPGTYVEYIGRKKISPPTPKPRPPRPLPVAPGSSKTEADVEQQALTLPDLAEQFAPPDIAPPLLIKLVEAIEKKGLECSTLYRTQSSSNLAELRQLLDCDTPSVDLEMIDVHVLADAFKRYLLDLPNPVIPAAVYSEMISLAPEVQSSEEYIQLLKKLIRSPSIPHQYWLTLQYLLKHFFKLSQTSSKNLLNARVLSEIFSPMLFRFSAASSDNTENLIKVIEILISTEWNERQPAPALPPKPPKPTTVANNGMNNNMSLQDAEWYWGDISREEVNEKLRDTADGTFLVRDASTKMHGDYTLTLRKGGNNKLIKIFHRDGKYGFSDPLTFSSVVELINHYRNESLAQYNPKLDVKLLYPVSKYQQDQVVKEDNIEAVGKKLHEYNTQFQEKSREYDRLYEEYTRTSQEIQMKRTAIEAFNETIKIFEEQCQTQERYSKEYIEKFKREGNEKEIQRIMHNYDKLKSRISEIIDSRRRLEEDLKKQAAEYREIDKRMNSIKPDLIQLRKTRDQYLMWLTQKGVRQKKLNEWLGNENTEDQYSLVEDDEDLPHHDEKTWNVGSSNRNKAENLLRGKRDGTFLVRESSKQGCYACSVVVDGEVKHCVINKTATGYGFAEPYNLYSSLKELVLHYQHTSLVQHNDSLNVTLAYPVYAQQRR

Row | IC50 | Structure (SMILES)
1 | 250 to 500 nM | Cn1c(C(=O)NCC2CC2)nc2c(N3CCC4(CC3)C(=O)Oc3ccccc34)ncnc21 [Compound 129, N-(cyclopropylmethyl)-9-methyl-6-(2-oxo-1′H-spiro[1-benzofuran-3,4′-piperidin]-1′-yl)-9H-purine-8-carboxamide]
2 | 50 to 250 nM | Cn1cc(-c2nc3c(N4CCN(C5=NS(=O)(=O)c6ccccc65)CC4)ncnc3n2C)cn1 [Compound 348, 6-[4-(1,1-dioxido-1,2-benzisothiazol-3-yl)piperazin-1-yl]-9-methyl-8-(1-methyl-1H-pyrazol-4-yl)-9H-purine]
3 | 500 to 1500 nM | CC(C)c1ccc2c(c1)C1(CCN(c3ncnc4c3nc(C(=O)NCC3CC3)n4C)CC1)C(=O)N2 [Compound 136, N-(cyclopropylmethyl)-9-methyl-6-[5-(1-methylethyl)-2-oxo-1,2-dihydro-1′H-spiro[indole-3,4′-piperidin]-1′-yl]-9H-purine-8-carboxamide]
4 | < 50 nM | Cn1c(C(=O)NCC(C)(C)O)nc2c(N3CCC(n4c(=O)[nH]c5ccccc54)CC3)ncnc21 [Compound 273, N-(2-hydroxy-2-methylpropyl)-9-methyl-6-[4-(2-oxo-2,3-dihydro-1H-benzimidazol-1-yl)piperidin-1-yl]-9H-purine-8-carboxamide]
5 | 50 to 250 nM | CC(C)CCn1cc(-c2nc3c(N4CCC(n5c(=O)[nH]c6ccccc65)CC4)ncnc3n2C)cn1 [Compound 233, 1-(1-{9-methyl-8-[1-(3-methylbutyl)-1H-pyrazol-4-yl]-9H-purin-6-yl}piperidin-4-yl)-1,3-dihydro-2H-benzimidazol-2-one]
6 | 250 to 500 nM | Cn1cc(-c2nc3c(N4CCN(c5cccc(OCC(=O)N6CCCCCC6)c5)CC4)ncnc3n2C)cn1 [Compound 359, 6-(4-{3-[(2-azepan-1-yl-2-oxoethyl)oxy]phenyl}piperazin-1-yl)-9-methyl-8-(1-methyl-1H-pyrazol-4-yl)-9H-purine]
7 | < 50 nM | CCn1c(C(=O)NCCCCO)nc2c(N3CCC(n4c(=O)[nH]c5ccccc54)CC3)ncnc21 [Compound 195, 9-ethyl-N-(4-hydroxybutyl)-6-[4-(2-oxo-2,3-dihydro-1H-benzimidazol-1-yl)piperidin-1-yl]-9H-purine-8-carboxamide]
8 | < 50 nM | Cn1c(-c2cn[nH]c2C2CC2)nc2c(N3CCC(n4c(=O)[nH]c5ccccc54)CC3)ncnc21 [Compound 287, 1-{1-[8-(5-cyclopropyl-1H-pyrazol-4-yl)-9-methyl-9H-purin-6-yl]piperidin-4-yl}-1,3-dihydro-2H-benzimidazol-2-one]
9 | < 50 nM | Cn1c(C(=O)N[C@H]2CC[C@H](O)CC2)nc2c(N3CCC4(CC3)C(=O)Nc3ccccc34)ncnc21 [Compound 87, N-(trans-4-hydroxycyclohexyl)-9-methyl-6-(2-oxo-1,2-dihydro-1′H-spiro[indole-3,4′-piperidin]-1′-yl)-9H-purine-8-carboxamide]
10 | 50 to 250 nM | COc1ccc(Cl)cc1S(=O)(=O)N1CCN(c2ncnc3c2nc(-c2cnn(C)c2)n3C)CC1 [Compound 388, 6-(4-{[5-chloro-2-(methyloxy)phenyl]sulfonyl}-piperazin-1-yl)-9-methyl-8-(1-methyl-1H-pyrazol-4-yl)-9H-purine]
11 | < 50 nM | CNc1ccc(-c2nc3c(N4CCC(n5c(=O)[nH]c6ccccc65)CC4)ncnc3n2C)cn1 [Compound 353, 1-(1-{9-methyl-8-[6-(methylamino)pyridin-3-yl]-9H-purin-6-yl}piperidin-4-yl)-1,3-dihydro-2H-benzimidazol-2-one]
12 | < 50 nM | CCn1c(C(=O)N2CC(F)(F)C2)nc2c(N3CCC4(CC3)C(=O)Nc3ccccc34)ncnc21 [Compound 216, 1′-{8-[(3,3-difluoroazetidin-1-yl)carbonyl]-9-ethyl-9H-purin-6-yl}spiro[indole-3,4′-piperidin]-2(1H)-one]
13 | 250 to 500 nM | Cn1cc(-c2nc3c(N4CCN(S(=O)(=O)c5ccccc5)CC4)ncnc3n2C)cn1 [Compound 355, 9-methyl-8-(1-methyl-1H-pyrazol-4-yl)-6-[4-(phenylsulfonyl)piperazin-1-yl]-9H-purine]
14 | 500 to 1500 nM | Cn1cc(-c2nc3c(N4CC[C@@H](n5c(=O)[nH]c6ccccc65)[C@H](C(=O)O)C4)ncnc3n2C)cn1 [Compound 347, (3R,4R)-1-[9-methyl-8-(1-methyl-1H-pyrazol-4-yl)-9H-purin-6-yl]-4-(2-oxo-2,3-dihydro-1H-benzimidazol-1-yl)piperidine-3-carboxylic acid]
15 | 250 to 500 nM | CC(C)CNC(=O)c1nc2c(N3CCC(n4c(=O)[nH]c5ccccc54)CC3)ncnc2n1C1CC1 [Compound 173, 9-cyclopropyl-N-(2-methylpropyl)-6-[4-(2-oxo-2,3-dihydro-1H-benzimidazol-1-yl)piperidin-1-yl]-9H-purine-8-carboxamide]
16 | 50 to 250 nM | CCn1c(C(=O)NCCCCO)nc2c(N3CCC4(CC3)C(=O)Nc3ccccc34)ncnc21 [Compound 222, 9-ethyl-N-(4-hydroxybutyl)-6-(2-oxo-1,2-dihydro-1′H-spiro[indole-3,4′-piperidin]-1′-yl)-9H-purine-8-carboxamide]
17 | < 50 nM | COc1ncc(-c2nc3c(N4CCC(n5c(=O)[nH]c6ccccc65)CC4)ncnc3n2C)cn1 [Compound 310, 1-(1-{9-methyl-8-[2-(methyloxy)pyrimidin-5-yl]-9H-purin-6-yl}piperidin-4-yl)-1,3-dihydro-2H-benzimidazol-2-one]
18 | < 50 nM | CCn1c(-c2cnc(NC)nc2)nc2c(N3CCC(n4c(=O)[nH]c5ccccc54)CC3)ncnc21 [Compound 307, 1-(1-{9-ethyl-8-[2-(methylamino)pyrimidin-5-yl]-9H-purin-6-yl)piperidin-4-yl)-1,3-dihydro-2H-benzimidazol-2-one]

Second part, the compound before the results:

Row | Structure (SMILES) | IC50
19 | COc1ccc(CNC(=O)c2nc3c(N4CCC(n5c(=O)[nH]c6ccccc65)CC4)ncnc3n2C)cc1 [Compound 59, 9-methyl-N-{[4-(methyloxy)phenyl]methyl}-6-[4-(2-oxo-2,3-dihydro-1H-benzimidazol-1-yl)piperidin-1-yl]-9H-purine-8-carboxamide] | 250 to 500 nM
20 | O=C(NCC1CC1)c1nc2c(N3CCC4(CC3)C(=O)Nc3ccccc34)ncnc2n1C1CC1 [Compound 175, 9-cyclopropyl-N-(cyclopropylmethyl)-6-(2-oxo-1,2-dihydro-1′H-spiro[indole-3,4′-piperidin]-1′-yl)-9H-purine-8-carboxamide] | 50 to 250 nM
21 | CCn1c(C(=O)NC2COC2)nc2c(N3CCC(n4c(=O)[nH]c5ccccc54)CC3)ncnc21 [Compound 208, 9-ethyl-N-oxetan-3-yl-6-[4-(2-oxo-2,3-dihydro-1H-benzimidazol-1-yl)piperidin-1-yl]-9H-purine-8-carboxamide] | < 50 nM
22 | CON(C)C(=O)c1nc2c(N3CCC(n4c(=O)[nH]c5ccccc54)CC3)ncnc2n1C [Compound 94, N,9-dimethyl-N-(methyloxy)-6-[4-(2-oxo-2,3-dihydro-1H-benzimidazol-1-yl)piperidin-1-yl]-9H-purine-8-carboxamide] | 500 to 1500 nM
23 | Cn1c(C(=O)NC2CC2)nc2c(N3CCC4(CC3)C(=O)Nc3ccccc34)ncnc21 [Compound 14, N-cyclopropyl-9-methyl-6-(2-oxo-1,2-dihydro-1′H-spiro[indole-3,4′-piperidin]-1′-yl)-9H-purine-8-carboxamide] | 50 to 250 nM
24 | Cn1c(C(=O)NCC2CC2)nc2c(N3CC(n4c(=O)[nH]c5cc(C(F)(F)F)ccc54)C3)ncnc21 [Compound 145, N-(cyclopropylmethyl)-9-methyl-6-{3-[2-oxo-5-(trifluoromethyl)-2,3-dihydro-1H-benzimidazol-1-yl]azetidin-1-yl}-9H-purine-8-carboxamide] | 250 to 500 nM
25 | Cn1c(C(=O)NCC2CC2)nc2c(N3CCC(n4nnc5ccccc54)CC3)ncnc21 [Compound 143, 6-[4-(1H-1,2,3-benzotriazol-1-yl)piperidin-1-yl]-N-(cyclopropylmethyl)-9-methyl-9H-purine-8-carboxamide] | 500 to 1500 nM
26 | Cn1c(-c2cn[nH]c2)nc2c(N3CCC4(CC3)C(=O)Nc3ccccc34)ncnc21 [Compound 238, 1′-[9-methyl-8-(1H-pyrazol-4-yl)-9H-purin-6-yl]spiro[indole-3,4′-piperidin]-2(1H)-one] | < 50 nM
27 | Cn1c(C(=O)N2CCC(F)(F)C2)nc2c(N3CCC4(CC3)C(=O)Nc3ccccc34)ncnc21 [Compound 106, 1′-{8-[(3,3-difluoropyrrolidin-1-yl)carbonyl]-9-methyl-9H-purin-6-yl}spiro[indole-3,4′-piperidin]-2(1H)-one] | 50 to 250 nM
28 | COc1ccccc1CNC(=O)c1nc2c(N3CCC4(CC3)C(=O)Nc3ccccc34)ncnc2n1C [Compound 26, 9-methyl-N-([2-(methyloxy)phenyl]methyl)-6-(2-oxo-1,2-dihydro-1′H-spiro[indole-3,4′-piperidin]-1′-yl)-9H-purine-8-carboxamide] | 500 to 1500 nM
29 | Cc1ccoc1-c1nc2c(N3CCC(n4c(=O)[nH]c5ccccc54)CC3)ncnc2n1C [Compound 128, 1-{1-[9-methyl-8-(3-methylfuran-2-yl)-9H-purin-6-yl]piperidin-4-yl}-1,3-dihydro-2H-benzimidazol-2-one] | 250 to 500 nM
30 | CCCc1nnc(-c2nc3c(N4CCC5(CC4)C(=O)Nc4ccccc45)ncnc3n2C)o1 [Compound 177, 1′-[9-methyl-8-(5-propyl-1,3,4-oxadiazol-2-yl)-9H-purin-6-yl]spiro[indole-3,4′-piperidin]-2(1H)-one] | < 50 nM
31 | Cn1c(C(=O)NCC2CCCCO2)nc2c(N3CCC4(CC3)C(=O)Nc3ccccc34)ncnc21 (stereo not shown) [Compound 82, 9-methyl-6-(2-oxo-1,2-dihydro-1′H-spiro[indole-3,4′-piperidin]-1′-yl)-N-(tetrahydro-2H-pyran-2-ylmethyl)-9H-purine-8-carboxamide] | 500 to 1500 nM
